Experiments:
M4 muscarinic receptor = biological target: T1, M4 muscarinic receptor (Homo sapiens, UniProt P08173); experiment: Functional mobilization of intracellular calcium (FLIPR) in M4-CHO cells; type: cell-based; conditions: M4 receptor, calcium mobilization; for Emax: read-out: M4 Efficacy
T1 construct: expressed in transfected cells; host or cells: CHO (M4-CHO)
T1 sequence (P08173 1-479): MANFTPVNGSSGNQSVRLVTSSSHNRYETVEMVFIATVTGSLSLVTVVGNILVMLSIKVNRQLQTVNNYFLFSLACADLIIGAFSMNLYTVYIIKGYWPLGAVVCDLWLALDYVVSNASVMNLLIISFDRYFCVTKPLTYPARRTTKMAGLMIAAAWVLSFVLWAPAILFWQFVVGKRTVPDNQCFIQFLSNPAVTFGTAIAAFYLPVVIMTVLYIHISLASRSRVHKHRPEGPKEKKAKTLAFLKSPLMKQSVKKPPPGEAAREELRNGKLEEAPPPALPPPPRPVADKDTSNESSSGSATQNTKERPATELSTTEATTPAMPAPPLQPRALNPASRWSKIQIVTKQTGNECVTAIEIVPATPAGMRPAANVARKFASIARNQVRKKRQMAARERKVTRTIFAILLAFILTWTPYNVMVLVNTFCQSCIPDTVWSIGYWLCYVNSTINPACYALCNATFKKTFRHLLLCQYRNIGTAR
Protocol: (§1) Functional Mobilization of Intracellular Calcium to Determine Muscarinic Receptor Activity:
(§2) CHO cells expressing muscarinic receptors (M1 to M5) are grown as monolayers in tissue culture flasks at 37° C. in a humidified atmosphere containing 5% CO2 and passaged every 3-5 days. The growth media is Dulbecco's modified eagles medium (DMEM, Gibco Cat# 12430-054), containing 25 mM Hepes and supplemented with Fetal Bovine Serum (Hyclone, cat# SH30071.03), 0.1 mM of MEM non-essential amino acids (GIBCO, Cat# 11140-050), 1 mM MEM Sodium Pyruvate (GIBCO Cat# 11360-070) and 100 units/ml of Penicillin G and 100 μg/ml of Streptomycin (GIBCO Cat# 15140-122). The recombinant muscarinic receptor cell lines are grown under antibiotic pressure with media containing 25 μg/ml zeocin and 500 μg/ml G418 (M1-CHO), 4 μg/ml puromycin, 50 μg/ml zeocin and 2.5 μg/ml blasticidin (M2 and M4-CHO) or 50 μg/ml zeocin and 4 μg/ml puromycin (M3 and M5-CHO).
(§3) Cells are harvested at 80-90% confluence using Versene (GIBCO Cat# 15040-066), collected by centrifugation and seeded 18-24 hrs prior to running the calcium assay at a density of 5,000 cells/well in back-walled, clear-bottomed 384-well plates (BD Biocoat, poly-D-lysine, Cat#356663). The day of the experiment, the cells are washed with a plate washer (Bioteck Instruments, ELX 405) using bath 1 buffer (140-mM NaCl, 4.5-mM KCl, 2-mM CaCl2, 1-mM MgCl2, 10-mM Hepes-Na, 10-mM Glucose, pH 7.4, with NaOH) containing 1 mM Probenecid. Next, the calcium dye Fluo-3 (25 μl/well of Fluo-3 AM at 4 μM, Molecular Probes F-1241, in Bath 1 buffer containing 1 mM Probenecid) is added to the 25 μl of Bath 1 remaining in each well after the plate wash and the dye is loaded at 37° C. in the tissue culture incubator for 60-90 min. The fluorescent dye is removed using the plate washer with Bath 1 containing 1 mM Probenecid, leaving 25 μl/well of this solution after the wash. Alternatively, cells can be loaded with the calcium indicator from Molecular Devices (Calcium 3 Assay Reagents, Cat # R7181) adding 5 μl of a 5× solution dye in Bath 1 containing 1 mM Probenecid (10 ml per dye flask cat# R7182 to generate a solution 20×) to 20 μl of the same buffer. After loading for 60 min, the experiment can be run without having to remove the dye.
(§4) Compounds are prepared at a 2× fold concentration in a 96-well plate (round bottom, Costar Corning cat# 3656), by reconstituting the pre-spotted compounds in bath 1 containing 1 mM probenecid. The final concentration DMSO is 0.5%, and the amount of DMSO is normalized across the assay plate. To determine an agonist action of the compounds on muscarinic receptors, the reconstituted compounds are added (25 μl compound/well) to the cell assay plate (containing 25 μl/well) using the multi-channel robotic system of the FLIPR 3 Instrument (Molecular Devices, Sunnyvale, Calif.). To determine a functional inhibitory action of the compounds on muscarinic receptors, the reconstituted compounds are added (25 μl compound/well) to the assay plate and pre-incubated for 15 min prior to adding 25 μl of Carbachol at 3× the EC80 for each muscarinic subtype. Alternatively, the compounds can be co-applied simultaneously with the agonist. In both assay modes, the fluorescence is recorded for 60 sec (excitation wavelength is […] and emission wavelength 540 nm) using the FLIPR 3 instrument.
(§5) The potency, efficacy and selectivity of the muscarinic compounds were evaluated by screening the compound activity across the whole family (M1 to M5 cells). Compounds were also screened for activity on other proteins such as other GPCRs and ion channels to determine selectivity on M4 receptors.

M1 muscarinic receptor = biological target: T2, M1 muscarinic receptor (Homo sapiens, UniProt P11229); experiment: Functional mobilization of intracellular calcium (FLIPR) in M1-CHO cells; type: cell-based; conditions: M1 receptor, calcium mobilization; for Emax: read-out: M1 Efficacy
T2 construct: expressed in transfected cells; host or cells: CHO (M1-CHO)
T2 sequence (P11229 1-460): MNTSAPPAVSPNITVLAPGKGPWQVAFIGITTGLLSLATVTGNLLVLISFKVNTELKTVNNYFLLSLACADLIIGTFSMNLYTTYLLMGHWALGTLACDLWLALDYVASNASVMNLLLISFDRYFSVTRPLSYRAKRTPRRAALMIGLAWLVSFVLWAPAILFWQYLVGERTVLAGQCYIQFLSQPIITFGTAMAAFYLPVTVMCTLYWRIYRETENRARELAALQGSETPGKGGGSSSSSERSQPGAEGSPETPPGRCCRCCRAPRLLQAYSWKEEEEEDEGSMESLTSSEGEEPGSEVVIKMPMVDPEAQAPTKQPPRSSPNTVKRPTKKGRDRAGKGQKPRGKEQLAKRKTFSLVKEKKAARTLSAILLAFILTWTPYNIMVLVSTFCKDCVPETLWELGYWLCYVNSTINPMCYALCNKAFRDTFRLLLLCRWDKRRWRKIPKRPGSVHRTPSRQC
Protocol: as §1, §2, §3, §4, §5

SMILES | M4 Activity (M4 muscarinic receptor) | Emax (M4 muscarinic receptor) [%] | M1 Activity (M1 muscarinic receptor) | Emax (M1 muscarinic receptor) [%]
CC(=O)N1CC2(CCN(C3CC4CCC(C4)C3)CC2)c2cc(F)ccc21 (centres unmarked) [compound 35] | xx (activity was measured to be between 0.1 μM and 1.0 μM) | > 85 | xxx (activity was measured to be less than 0.1 μM) | > 85
CCCOC(=O)N1CCC(CN2CCC3(CC2)C[C@H](NC(C)=O)c2ccccc23)CC1 [compound 36] | xx (activity was measured to be between 0.1 μM and 1.0 μM) | > 85 | xxx (activity was measured to be less than 0.1 μM) | 65 to 85
Clc1ccc2c(c1)C1(CCN(C3CCOCC3)CC1)CN2 [compound 37] | xx (activity was measured to be between 0.1 μM and 1.0 μM) | > 85 | xxx (activity was measured to be less than 0.1 μM) | 65 to 85
CCOC(=O)N1CCC(N2CCC3(CC2)CN(C(=O)OCCOC)c2ccc(F)cc23)CC1 [compound 38] | xxx (activity was measured to be less than 0.1 μM) | > 85 | xxx (activity was measured to be less than 0.1 μM) | > 85
CCOC(=O)N1CCC(N2CCC3(CC2)CN(C(=O)N(C)C)c2ccc(F)cc23)CC1 [compound 39] | xx (activity was measured to be between 0.1 μM and 1.0 μM) | > 85 | xxx (activity was measured to be less than 0.1 μM) | 65 to 85
CCOC(=O)N1CCC(N2CCC3(CC2)CN(C(=O)c2ccc(OC)cc2)c2ccc(F)cc23)CC1 [compound 41] | xxx (activity was measured to be less than 0.1 μM) | > 85 | xxx (activity was measured to be less than 0.1 μM) | > 85
CCOC(=O)N1C2CCC1CC(N1CCC3(CC1)COc1ccc(F)cc13)C2 (centres unmarked) [compound 42] | xx (activity was measured to be between 0.1 μM and 1.0 μM) | > 85 | xxx (activity was measured to be less than 0.1 μM) | > 85
O=C(O[C@@H]1CCOC1)N1C2CCC1CC(N1CCC3(CCc4ccccc43)CC1)C2 (some centres unmarked) [compound 43] | x (activity was measured to be greater than 1.0 μM) | > 85 | xxx (activity was measured to be less than 0.1 μM) | > 85
COC(=O)N1C2CCC1CC(N1CCC3(CC1)CN(C(=O)c1cc(C)n(C)n1)c1ccc(F)cc13)C2 (centres unmarked) [compound 44] | xx (activity was measured to be between 0.1 μM and 1.0 μM) | > 85 | xxx (activity was measured to be less than 0.1 μM) | 65 to 85
CCOC(=O)N1CCC(N2CCC3(CC2)CN(C(=O)c2cccc(OC)c2)c2ccc(F)cc23)CC1 [compound 45] | xxx (activity was measured to be less than 0.1 μM) | 65 to 85 | xxx (activity was measured to be less than 0.1 μM) | > 85
CCOC(=O)N1CCC(CN2CCC3(CC2)CN(C(C)=O)c2ccc(C)cc23)CC1 [compound 46] | xxx (activity was measured to be less than 0.1 μM) | 65 to 85 | xxx (activity was measured to be less than 0.1 μM) | > 85
CC(=O)N1CC2(CCN(C3CC4CCC(C3)N4C(=O)O[C@H]3CCOC3)CC2)c2cc(F)ccc21 (some centres unmarked) [compound 47] | xx (activity was measured to be between 0.1 μM and 1.0 μM) | 65 to 85 | xxx (activity was measured to be less than 0.1 μM) | 65 to 85
CN(C)C(=O)N1CC2(CCN(C3CCN(C(=O)OCCF)CC3)CC2)c2cc(F)ccc21 [compound 48] | xx (activity was measured to be between 0.1 μM and 1.0 μM) | 65 to 85 | xxx (activity was measured to be less than 0.1 μM) | > 85
CCOC(=O)N1CCC(N2CCC3(CC2)CN(C(=O)O[C@H]2CCOC2)c2ccc(F)cc23)CC1 [compound 49] | xxx (activity was measured to be less than 0.1 μM) | 65 to 85 | xxx (activity was measured to be less than 0.1 μM) | > 85
CCOC(=O)N1C2CCC1CC(N1CCC3(CC1)CN(C(=O)c1cc(C)n(C)n1)c1ccc(F)cc13)C2 (centres unmarked) [compound 50] | xx (activity was measured to be between 0.1 μM and 1.0 μM) | > 85 | xxx (activity was measured to be less than 0.1 μM) | > 85
Cc1ccc2c(c1)C1(CCN(C3CC4CCC3C4)CC1)CN2C(=O)C1CC1 (centres unmarked) [compound 51] | xx (activity was measured to be between 0.1 μM and 1.0 μM) | 65 to 85 | xxx (activity was measured to be less than 0.1 μM) | 65 to 85
CC(=O)N1CC2(CCN(C3CCCCC3C)CC2)c2cc(F)ccc21 (centres unmarked) [compound 52] | xxx (activity was measured to be less than 0.1 μM) | 65 to 85 | xxx (activity was measured to be less than 0.1 μM) | > 85
CCOC(=O)N1CCC(N2CCC3(CC2)CN(C(=O)c2ccccc2C)c2ccc(F)cc23)CC1 [compound 53] | xx (activity was measured to be between 0.1 μM and 1.0 μM) | 65 to 85 | xx (activity was measured to be between 0.1 μM and 1.0 μM) | < 65
CC(C)OC(=O)N1CCC(N2CCC3(CC2)CN(C(=O)N(C)C)c2ccc(F)cc23)CC1 [compound 54] | xx (activity was measured to be between 0.1 μM and 1.0 μM) | 65 to 85 | xxx (activity was measured to be less than 0.1 μM) | > 85
CC(C)C(=O)N[C@H]1CC2(CCN(C[C@H]3C[C@H]4CC[C@H]3C4)CC2)c2ccccc21 [compound 55] | xxx (activity was measured to be less than 0.1 μM) | 65 to 85 | xxx (activity was measured to be less than 0.1 μM) | > 85

From patent US7786141B2 (Vertex Pharmaceuticals Incorporated, priority 2004, dated 2010)
